Earlier results in patent US10602743B2, “Method of inducing drought/salt tolerance using Bacillus megaterium” (Marrone Bio Innovations, Inc., priority 2012, dated 2020).

Tested on: Vero cells
Details: cited from earlier work

## Nc1ncnc2c1ncn2[C@@H]1O[C@H](CO)[C@H]1CO [Oxetanocin, 9-[(2R,3R,4S)-3,4-bis(hydroxymethyl)-2-oxetanyl]adenine]
  Cytotoxicity against Vero cells (50% inhibition of cell growth): 132.6 μg/well
